Publication PMC6348443 (Journal of Medicinal Chemistry, 2018)
Where a name gives a salt, the structure may show the parent alone. Read-outs that look alike come from different tables or passages of the source.

Assays:
KOR [1] = target: T1, KOR (Homo sapiens, UniProt P41145); assay: [35S]GTPγS binding assay, CHO-hKOR membranes; type: biochemical; settings: for EC50: [35S]GTPγS, CHO human KOR membranes, read-out: KOR EC50; for Emax: relative to reference full agonist U69,593, read-out: KOR % stim.; for functional profile at KOR (full/partial agonist): partial agonist <85% of the response to U69,593
T1 construct: host or cells: CHO (CHO-hKOR)
Description: (§1) Efficacies are presented as percentage stimulation relative to the standard full agonists, [D-Ala^2,N-Me-Phe4,Gly-ol^5]enkephalin (DAMGO for MOR),[53] [D-Pen^2,D-Pen^5]enkephalin (DPDPE for DOR)[54] and N-methyl-2-phenyl-N-[(5R,7S,8S)-7-(pyrrolidin-1-yl)-1-oxaspiro[4.5]dec-8-yl]acetamide (U69,593 for KOR).[55]
(§2) Membranes from CHO cells expressing human opioid receptors were prepared in 50 mM Tris-HCl buffer (pH 7.7) according to a previously described procedure.[64] Cells expressing human opioid receptors grown at confluence were removed from the culture plates by scraping, homogenized in 50 mM Tris buffer (pH 7.7), using a Polytron homogenizer, then centrifuged once and washed by an additional centrifugation at 27 000g for 15 min, at 4 °C. The final pellet was resuspended in Tris buffer and stored at −80 °C until use. Protein content of brain and cell membrane preparation homogenates was determined by the method of Bradford using bovine serum albumin as the standard.[65]
(§3) Binding of [^35S]GTPγS to membranes from CHO cells stably expressing the human opioid receptors was conducted according to the published procedures.[49],[64] Cell membranes (5–10 μg) in 20 mM HEPES, 10 mM MgCl2, and 100 mM NaCl (pH 7.4) were incubated with 0.05 nM [^35S]GTPγS, 10 μM GDP, and various concentrations of test compound in a final volume of 1 mL, for 60 min at 25 °C. Nonspecific binding was determined using 10 μM GTPγS, and the basal binding was determined in the absence of test ligand. Samples are filtered over glass Whatman glass GF/B fiber filters and counted as described for binding assays. All experiments were performed in duplicate and repeated at least three times.
(§4) Data were analyzed and graphically processed using the GraphPad Prism 5.0 Software (GraphPad Prism Software Inc., San Diego, CA). For in vitro assays, inhibition constant (Ki in nM), potency (EC50 in nM), and efficacy (% stimulation) values were determined from concentration–response curves by nonlinear regression analysis. The Ki values were determined by the method of Cheng and Prusoff.[66] In the [^35S]GTPγS binding assays, efficacy was determined relative to the reference full opioid agonists, DAMGO (MOR), DPDPE (DOR), and U69,593 (KOR). In vitro data are presented as mean ± SEM of three to four independent experiments each performed in duplicate. […] Each experimental group included six to seven mice. Data were statistically evaluated using one-way ANOVA with Tukey’s post hoc test for multiple comparisons with significance set at P < 0.05.

male CD1 mice = assay: acetic acid-induced writhing assay after sc administration; type: in vivo, mouse; settings: for ED50: Mus musculus, 0.5 h, read-out: ED50 (95% CI), mice, sc, inhibition of writhing 30 min after drug administration; for ED50 (95% CI): mice, inhibition of writhing 30 min after drug administration
Description: Solutions of test compounds were prepared in sterile physiological 0.9% saline and further diluted to working doses in saline solution. Test compounds or saline (control) were administered by sc route in a volume of 10 μL/1 g of body weight. All doses are expressed in terms of salts. Separate groups of mice received the respective dose of compound, and individual mice were only used once for behavioral testing.
Writhing was induced in male CD1 mice by ip injection of a 0.6% acetic acid aqueous solution as described previously.[48],[62] Groups of mice were administered sc different doses of test compound or saline (control), and 5 min prior to testing (25 min after drug or saline), each animal received an ip injection of acetic acid solution. Each mouse was placed in individual transparent Plexiglas chambers, and the number of writhes was counted during a 10 min observation period. […] For the antagonism study, naloxone methiodide was sc co-administered with the respective opioid agonist, and writhing was assessed as described above.
as §4

DOR [2] = target: T2, DOR (Homo sapiens, UniProt P41143); assay: [35S]GTPγS binding assay, CHO-hDOR membranes; type: biochemical; settings: for EC50: [35S]GTPγS, CHO human DOR membranes; for Emax: relative to reference full agonist DPDPE, read-out: DOR % stim.
T2 construct: host or cells: CHO (CHO-hDOR)
Description: as §1, §2, §3, §4

MOR [3] = target: T3, MOR (Homo sapiens, UniProt P35372); assay: [35S]GTPγS binding assay, CHO-hMOR membranes; type: biochemical; settings: for Emax: relative to reference full agonist DAMGO, read-out: MOR % stim.
T3 construct: host or cells: CHO (CHO-hMOR)
Description: as §1, §2, §3, §4

KOR [4] = target: T4, KOR (Cavia porcellus, UniProt P41144); assay: competition radioligand binding, guinea-pig brain membranes, [3H]U69,593; settings: guinea-pig brain membranes; read-out: opioid receptor binding Ki KOR
T4 construct: Membranes were prepared from Sprague-Dawley rat brains or guinea-pig brains according to the described procedures; tissue Labortierkunde und Laborgenetik, Medizinische Universität Wien; host or cells: guinea-pig brain without cerebella
Description: (§5) Competition binding assays using rat brain (MOR and DOR) and guinea-pig brain (KOR) membranes (Table 1) were performed according to published procedures.[44],[49] […] In addition, we have assessed binding at the human opioid receptors stably transfected in Chinese hamster ovary (CHO) cells (Table S1).
(§6) Membranes were prepared from Sprague-Dawley rat brains or guinea-pig brains according to the described procedures.[44],[45] Brains without cerebella were homogenized on ice in 5 vol/wt of ice-cold 50 mM Tris-HCl buffer (pH 7.4) and diluted in 30 vol/wt of the same buffer. After centrifugation at 40 000g for 20 min at 4 °C, the pellets were resuspended in 30 vol/wt of 50 mM Tris-HCl buffer (pH 7.4) and incubated at 37 °C for 30 min. The centrifugation step described above was repeated, and the final pellets were resuspended in 5 vol/wt of 50 mM Tris-HCl buffer (pH 7.4) containing 0.32 M sucrose and stored at −80 °C until use.
(§7) Rat brain membranes were incubated with either [^3H]DAMGO (1 nM, 45 min, 35 °C) or [^3H][Ile^5,6]deltorphin II (0.5 nM, 45 min, 35 °C) for labeling MOR or DOR receptors, respectively. Guinea-pig brain membranes were incubated with [^3H]U69,593 (1 nM, 30 min, 30 °C) for labeling KOR. Binding assays with CHO cell membranes were conducted at 25 °C for 60 min using [^3H]DAMGO (1 nM) or [^3H]diprenorphine (0.2 nM) for labeling MOR or DOR, respectively. Nonspecific binding was determined using 10 μM naloxone (rodent brain) or 1–10 μM of the unlabeled counterpart of each radioligand (CHO cells). Reactions were terminated by rapid filtration through Whatman glass fiber GF/C filters. Filters were washed three times with 5 mL of ice-cold 50 mM Tris-HCl buffer (pH 7.4) using a Brandel M24R cell harvester (Gaithersburg, MD). Radioactivity retained on the filters was counted by liquid scintillation counting using a Beckman Coulter LS6500 (Beckman Coulter Inc., Fullerton, CA). All binding experiments were performed in duplicate and repeated at least three times.
as §4

DOR [5] = target: T5, DOR (Rattus norvegicus, UniProt P33533); assay: competition radioligand binding, rat brain membranes, [3H][Ile5,6]deltorphin II; settings: rat brain membranes; read-out: opioid receptor binding Ki DOR
T5 construct: Membranes were prepared from Sprague-Dawley rat brains or guinea-pig brains according to the described procedures; tissue Labortierkunde und Laborgenetik, Medizinische Universität Wien; host or cells: Sprague-Dawley rat brain without cerebella
Description: as §5, §6, §7, §4

MOR [6] = target: T6, MOR (Rattus norvegicus, UniProt P33535); assay: competition radioligand binding, rat brain membranes, [3H]DAMGO; settings: rat brain membranes; read-out: opioid receptor binding Ki MOR
T6 construct: Membranes were prepared from Sprague-Dawley rat brains or guinea-pig brains according to the described procedures; tissue Labortierkunde und Laborgenetik, Medizinische Universität Wien; host or cells: Sprague-Dawley rat brain without cerebella
Description: as §5, §6, §7, §4

[7] = [35S]GTPγS, CHO human MOR membranes, read-out: MOR EC50

| SMILES | EC50 (KOR [1]) [nM] | Emax (KOR [1]) [%] | ED50 (male CD1 mice) [mg/kg] | EC50 (DOR [2]) [nM] | Emax (DOR [2]) [%] | EC50 (MOR [3]; [7]) [nM] | Emax (MOR [3]) [%] | functional profile at KOR (full/partial agonist) (KOR [1]) | Ki (KOR [4]) [nM] | Ki (DOR [5]) [nM] | Ki (MOR [6]) [nM] | EC50 (MOR [3]) [nM] | ED50 (95% CI) (male CD1 mice) | increased agonist potency at DOR vs MOR (DOR [2]; [35S]GTPγS EC50) |
| --- | --- | --- | --- | --- | --- | --- | --- | --- | --- | --- | --- | --- | --- | --- |
| CO[C@@]12CCC(=O)[C@@H]3Oc4c(O)ccc5c4[C@@]31CCN(C)[C@@H]2C5 [Compound 1, 14-O-methyloxymorphone, reference compound] | 116 ± 31 | 77 ± 5 | 0.00326 | 37.3 ± 8.5 | 106 ± 1 |  |  |  |  |  |  |  |  |  |
| CN1CC[C@]23c4c5ccc(O)c4O[C@H]2[C@@H](NCC(=O)O)CC[C@@]3(OCCCc2ccccc2)[C@H]1C5 [Compound 5a] |  |  | 0.0361 |  |  |  |  |  |  |  |  |  |  |  |
| CN1CC[C@]23c4c5ccc(O)c4O[C@H]2[C@H](NCC(=O)O)CC[C@@]3(OCCCc2ccccc2)[C@H]1C5 [Compound 5b] |  |  | 0.0416 |  |  |  |  |  |  |  |  |  |  |  |
| CO[C@@]12CC[C@H](N[C@@H](CO)C(=O)O)[C@@H]3Oc4c(O)ccc5c4[C@@]31CCN(C)[C@@H]2C5 [Compound 6a, (2S)-2-[(4,5α-Epoxy-3-hydroxy-14β-methoxy-17-methylmorphinan-6α-yl)amino]-3-hydroxypropionic Acid Dihydrochloride] | 1210 ± 200 | 44 ± 5.2 | 0.0321 | 13.9 ± 1.5 | 101 ± 2 | 1.6 ± 0.59 | 87 ± 5 |  |  |  |  |  |  |  |
| CO[C@@]12CC[C@@H](N[C@@H](CO)C(=O)O)[C@@H]3Oc4c(O)ccc5c4[C@@]31CCN(C)[C@@H]2C5 [Compound 6b, (2S)-2-[(4,5α-Epoxy-3-hydroxy-14β-methoxy-17-methylmorphinan-6β-yl)amino]-3-hydroxypropionic Acid Dihydrochloride] | 201 ± 116 | 88 ± 2 |  | 6.98 ± 4.24 | 98 ± 1 | 3.56 ± 0.76 | 101 ± 9 | full agonists |  |  |  |  |  |  |
| CO[C@@]12CC[C@H](N[C@H](C(=O)O)C(C)C)[C@@H]3Oc4c(O)ccc5c4[C@@]31CCN(C)[C@@H]2C5 [Compound 7a, (2S)-2-[(4,5α-Epoxy-3-hydroxy-14β-methoxy-17-methylmorphinan-6α-yl)amino]-3-methylbutyric Acid Dihydrochloride] | 462 ± 126 | 51 ± 0.5 |  | 33.8 ± 8.9 | 91 ± 2 | 10.5 ± 4 | 95 ± 8 | partial agonist | 325 ± 19 | 3.91 ± 0.3 | 3.16 ± 0.25 |  |  |  |
| CO[C@@]12CC[C@H](N[C@@H](CC(N)=O)C(=O)O)[C@@H]3Oc4c(O)ccc5c4[C@@]31CCN(C)[C@@H]2C5 [Compound 11a, (2S)-3-Carbamoyl-2-[(4,5α-epoxy-3-hydroxy-14β-methoxy-17-methylmorphinan-6α-yl)amino]propionic Acid Dihydrochloride] | 81.7 ± 12.3 | 67 ± 12 | < 0.02 | 9.78 ± 3.32 | 106 ± 6 | 0.83 ± 0.17 | 99 ± 0.2 |  |  |  |  | < 1 | 15.2 (6.89–33.3) μg/kg |  |
| CO[C@@]12CC[C@@H](N[C@@H](CC(N)=O)C(=O)O)[C@@H]3Oc4c(O)ccc5c4[C@@]31CCN(C)[C@@H]2C5 [Compound 11b, (2S)-3-Carbamoyl-2-[(4,5α-epoxy-3-hydroxy-14β-methoxy-17-methylmorphinan-6β-yl)amino]propionic Acid Dihydrochloride] | 923 ± 11 | 71 ± 9 |  | 3.18 ± 0.93 | 88 ± 5 | 2.04 ± 0.44 | 96 ± 14 |  |  |  |  |  |  |  |
| CO[C@@]12CC[C@H](N[C@@H](CCC(N)=O)C(=O)O)[C@@H]3Oc4c(O)ccc5c4[C@@]31CCN(C)[C@@H]2C5 [Compound 12a, (2S)-4-Carbamoyl-2-[(4,5α-epoxy-3-hydroxy-14β-methoxy-17-methylmorphinan-6α-yl)amino]butanoic Acid Dihydrochloride] | 185 ± 30 | 70 ± 3 |  | 7.8 ± 3.61 | 104 ± 10 | 2.27 ± 0.11 | 90 ± 8 |  |  |  |  |  |  |  |
| CO[C@@]12CC[C@@H](N[C@@H](CCC(N)=O)C(=O)O)[C@@H]3Oc4c(O)ccc5c4[C@@]31CCN(C)[C@@H]2C5.Cl.Cl [Compound 12b, (2S)-4-Carbamoyl-2-[(4,5α-epoxy-3-hydroxy-14β-methoxy-17-methylmorphinan-6β-yl)amino]butanoic Acid Dihydrochloride] | 1410 ± 418 | 63 ± 17 |  | 3.96 ± 0.07 | 103 ± 9 | 9.54 ± 1.15 | 98 ± 4 |  |  |  |  |  |  | 2–4 times |
| CN1CC[C@]23c4c5ccc(O)c4O[C@H]2[C@@H](O)C=C[C@H]3[C@H]1C5 [morphine, reference compound] |  |  |  |  |  |  |  |  |  |  |  |  | 437 (249–768) μg/kg |  |
